{
  "source": "patent US20020028942A1",
  "about": "“Novel process and compound” (priority 1997, published 2002)",
  "key": {"[1]": {"assay": "Stability of aqueous solutions", "assay_type": "physicochemical", "from_the_text": "The feedstock for freeze-drying may be prepared conveniently by, for example, dissolution of paroxetine free base in aqueous hydrochloric acid, although other solid forms of paroxetine hydrochloride may also be dissolved. For example, the feedstock may be prepared by dissolving amorphous paroxetine hydrochloride or a crystalline paroxetine hydrochloride anhydrate, hydrate or solvate in suitable solvent. The solvent used may be pure water or a mixture of water with compatible organic solvents. […] Suitable concentrations of paroxetine hydrochloride for freeze-drying are in the range 1 to 30% by weight, preferably in the range 5% to 20% by weight.\nProcessing at elevated temperature may be employed to reduce the risk of unwanted crystallisation during processing but is not essential."}, "[2]": {"settings": "known forms, well documented in the literature; cited from earlier work"}, "[3]": {"assay": "Solubility / dissolution in water", "assay_type": "physicochemical", "from_the_text": "Paroxetine hydrochloride has been described in the literature as a crystalline hemihydrate (see EP-A-0223403 of Beecham Group) and as various crystalline anhydrate forms (see WO96/24595 of SmithKline Beecham plc). These known forms are not ideally suited for all pharmaceutical applications. […] Furthermore, liquids can be dispensed into unit dosages more conveniently and precisely than solids, and the use of liquid feedstocks reduces hazards associated with dust. In addition, the known solid forms of paroxetine hydrochloride are relatively insoluble and are slow to dissolve completely.\nThe product is homogenous without any further processing and is obtained in 100% yield, a higher yield than is possible in any crystallisation process."}},
  "note": "Counter-ions that a name gives are not always drawn.",
  "data": [
    {"smiles": "Fc1ccc([C@@H]2CCNC[C@H]2COc2ccc3c(c2)OCO3)cc1", "note": "[paroxetine hydrochloride, (−)trans isomer of 4-(4′-fluorophenyl)-3-(3′,4′-methylenedioxyphenoxymethyl)-piperidine]", "values": [
      {"measurement": "stability of aqueous solution", "setting": "[1]; ambient temperature, once dissolved, in the absence of seeds of a crystalline form", "value": "stable at ambient temperature for many days"},
      {"measurement": "solubility in water", "setting": "[2]", "value": "low solubility in water"}
    ]},
    {"smiles": "Fc1ccc([C@@H]2CCNC[C@H]2COc2ccc3c(c2)OCO3)cc1", "note": "[freeze-dried paroxetine hydrochloride, paroxetine hydrochloride]", "values": [
      {"measurement": "dissolution of the freeze-dried product", "setting": "[3]", "value": "dissolves quickly and completely"},
      {"measurement": "stability of reconstituted aqueous solution", "setting": "[1]; freeze-dried product dispersed in water, concentration for parenteral dosage, supersaturated with respect to hemihydrate", "value": "sufficiently stable for liquid dispensing"}
    ]},
    {"smiles": "Fc1ccc([C@@H]2CCNC[C@H]2COc2ccc3c(c2)OCO3)cc1", "note": "[paroxetine hydrochloride hemihydrate, Paroxetine hydrochloride hemihydrate]", "values": [
      {"measurement": "stability of aqueous solution of a concentration suitable for freeze-drying", "setting": "[1]; highly supersaturated with respect to paroxetine hydrochloride hemihydrate", "value": "sufficiently stable for sterile filtration and liquid processing"}
    ]}
  ]
}
